In ChEMBL document CHEMBL1151064, “Conformationally restricted 1,5-diarylpyrazoles are selective COX-2 inhibitors” (Bioorg Med Chem Lett, 1996):
pIC50: −log10 of the molar value.

Columns and labels:
[1] = target: T1, Prostaglandin G/H synthase 1 (Homo sapiens, UniProt P23219); experiment: Inhibition of Prostaglandin G/H synthase 1 (COX-1)
[2] = target: T2, Prostaglandin G/H synthase 2 (Homo sapiens, UniProt P35354); experiment: Inhibition of Prostaglandin G/H synthase 2 (COX-2)
T2 sequence (P35354 whole entry): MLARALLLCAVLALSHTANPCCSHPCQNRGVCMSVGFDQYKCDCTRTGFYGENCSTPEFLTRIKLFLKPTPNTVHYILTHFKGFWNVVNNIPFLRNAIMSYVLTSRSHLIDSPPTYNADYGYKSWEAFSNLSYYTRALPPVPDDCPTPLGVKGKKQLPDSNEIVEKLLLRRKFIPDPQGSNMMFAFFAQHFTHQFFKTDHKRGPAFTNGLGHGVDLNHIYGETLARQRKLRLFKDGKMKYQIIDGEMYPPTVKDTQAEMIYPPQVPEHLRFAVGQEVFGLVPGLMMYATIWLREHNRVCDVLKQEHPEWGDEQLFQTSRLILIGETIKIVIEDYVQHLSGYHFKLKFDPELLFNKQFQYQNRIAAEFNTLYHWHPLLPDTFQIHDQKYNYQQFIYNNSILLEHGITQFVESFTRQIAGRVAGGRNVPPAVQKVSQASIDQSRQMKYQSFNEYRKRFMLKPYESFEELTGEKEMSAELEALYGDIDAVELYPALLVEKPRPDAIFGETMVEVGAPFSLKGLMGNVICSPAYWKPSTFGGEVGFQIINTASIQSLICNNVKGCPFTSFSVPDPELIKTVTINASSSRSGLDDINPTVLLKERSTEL

[3] = test system: Rattus norvegicus; experiment: Compound was tested for inhibitory activity in carrageenan rat foot edema assay; type: functional
[4] = target: T1, Prostaglandin G/H synthase 1; experiment: Relative activity against COX-1/COX-2

T1 sequence (P23219 whole entry): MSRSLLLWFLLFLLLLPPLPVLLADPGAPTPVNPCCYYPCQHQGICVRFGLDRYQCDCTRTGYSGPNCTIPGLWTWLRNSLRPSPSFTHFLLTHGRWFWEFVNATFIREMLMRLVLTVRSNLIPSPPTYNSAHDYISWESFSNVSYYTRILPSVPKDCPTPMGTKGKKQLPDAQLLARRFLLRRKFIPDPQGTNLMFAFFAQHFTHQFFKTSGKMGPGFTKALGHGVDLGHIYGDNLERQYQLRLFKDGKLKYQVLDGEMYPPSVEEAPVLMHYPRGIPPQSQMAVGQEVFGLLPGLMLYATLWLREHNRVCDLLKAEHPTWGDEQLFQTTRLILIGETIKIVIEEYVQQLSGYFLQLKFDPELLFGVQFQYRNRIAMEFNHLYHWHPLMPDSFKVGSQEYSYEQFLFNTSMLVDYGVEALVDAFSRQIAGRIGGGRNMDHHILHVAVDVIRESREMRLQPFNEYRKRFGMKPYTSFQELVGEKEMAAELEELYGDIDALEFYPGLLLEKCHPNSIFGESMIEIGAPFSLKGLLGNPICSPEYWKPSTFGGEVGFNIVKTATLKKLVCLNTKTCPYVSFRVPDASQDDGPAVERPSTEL

Structure (SMILES)	pIC50 [1]	pIC50 [2]	ED50 [3] [mg/kg]	Ratio [4]
Cc1cc2c(cc1F)-c1c(c(C(F)(F)F)nn1-c1ccc(S(N)(=O)=O)cc1)SC2	4.95	7.80	15	693
NS(=O)(=O)c1ccc(-n2nc(C(F)(F)F)c3c2-c2cc(F)c(F)cc2CS3)cc1	5.57	8.22		381
COc1cc2c(cc1F)-c1c(c(C(F)(F)F)nn1-c1ccc(S(N)(=O)=O)cc1)SC2	5.56	8.05	17.7	303
NS(=O)(=O)c1ccc(-n2nc(C(F)(F)F)c3c2-c2ccccc2OC3)cc1		5.88		5.3
NS(=O)(=O)c1ccc(-n2nc(C(F)(F)F)c3c2-c2cc(F)ccc2CS3)cc1	5.20	7.68		297
NS(=O)(=O)c1ccc(-n2nc(C(F)(F)F)c3c2-c2ccc(F)cc2CS3)cc1	6.57	7.40		7
Cc1ccc2c(c1)CSc1c(C(F)(F)F)nn(-c3ccc(S(N)(=O)=O)cc3)c1-2	6.10	7.66		36
N#Cc1nn(-c2ccc(S(N)(=O)=O)cc2)c2c1SCc1cc(F)ccc1-2	6.12	6.85		5
NS(=O)(=O)c1ccc(-n2nc(C(F)(F)F)c3c2-c2ccccc2CS3)cc1		7.70		20
COc1ccc2c(c1)CSc1c(C(F)(F)F)nn(-c3ccc(S(N)(=O)=O)cc3)c1-2	6.52	7.89		23
COc1cc2c(cc1F)-c1c(c(C(F)(F)F)nn1-c1ccc(S(N)(=O)=O)cc1)[S+]([O-])C2 (centres undefined)	< 4.00	5.82		> 67
COc1cc2c(cc1F)-c1c(c(C(F)(F)F)nn1-c1ccc(S(C)(=O)=O)cc1)SC2	< 4.00	7.12		> 1330
COc1cc2c(cc1F)-c1c(c(C(F)F)nn1-c1ccc(S(N)(=O)=O)cc1)SC2	< 4.00	7.49		> 3120
